From patent EP0188793A1, “Improved topical minoxidil composition” (Richardson-Vicks, Inc., priority 1984, dated 1986)

Experiment: in-vitro dripping (seepage) assay: distance traveled by a drop down an inclined glass plate
Assay type: physicochemical
Procedure: An in-vitro assay is utilized which measures the distance traveled by a 10 µ1 drop of the test formulation down a glass plate inclined at 45°C for 10 seconds. The test formulation is colored with dye to enhance the visual movement of the product. Pure ethanol (Ethanol, U.S.P) is used as the standard against which the test formulation is compared. […] The solvent system for each test formulation is 50:50 EtOH:HOH.
The ratio of the distance traveled ("dripping distance") by the particular test formulation to that of the ethanol standard provides the "dripping index" number for the test formulation.

Dripping Distance (10 µ1 drop, glass plate inclined at 45°C, 10 seconds, solvent 50:50 EtOH:HOH): 60 mm
Dripping Index (ratio of dripping distance of the test formulation to that of the ethanol standard): 1.00
Compound: CCO [100% Ethanol, Ethanol]
